Experimental findings from ChEMBL document CHEMBL1681663, “Design and synthesis of novel tetrahydronaphthyl azoles and related cyclohexyl azoles as antileishmanial agents” (Bioorg Med Chem Lett, 2011) are described below.

For orientation: CC50 means the concentration giving 50% cytotoxicity. Read a low CC50 as greater toxicity to the cells. In general, inhibition refers to the drop in the measured response relative to a control, in per cent. The term IC50 denotes the concentration that gives 50% inhibition. The term inhibition in vivo denotes the share of the control response that was lost under treatment.

Data set [1] in a line: Cytotoxicity against mouse J774A1 cells by MTT assay. The class given is cell-based, J774.A1. A general note: Tetrazolium assays rely on reduction of a dye to a coloured formazan, in cell work by metabolically active cells.
Data set [2] relates to Leishmania donovani. The experiment in a line: Antileishmanial activity against promastigotes of Leishmania donovani at 10 ug/ml. In kind it is functional.
Data set [3] relates to Leishmania donovani. In words: Antileishmanial activity against amastigotes of Leishmania donovani. The class given is functional, organism-based.
Data set [4] is described as follows: (§1) Selectivity index, ratio of CC50 for mouse J774A1 cells to IC50 for amastigotes of Leishmania donovani. The class given is functional, J774.A1.
In data set [5] the test system is Leishmania donovani. In words: Antileishmanial activity against amastigotes of Leishmania donovani at 10 ug/ml. The class given is functional, organism-based.
Data set [6] relates to Leishmania donovani. In words: Antileishmanial activity against Leishmania donovani infected in Hamster assessed as inhibition of parasites growth at 50 mg/kg, ip for 5 times. The class given is functional. The settings on record: for inhibition in vivo at 50 mg/kg: route intraperitoneal.
A further data set relates to J774.A1. The description is as §1. The class given is functional.

Converted amounts (≈) assume the structure as drawn. The source made the active and inactive calls. The calls are words filed in the database; no cut-off is given here. Bounds are passed on as bounds.

As to `O=[N+]([O-])c1ccc(O[C@H]2CCCC[C@@H]2n2ccnc2)c(F)c1` (racemic), the CC50 in data set [1] came out at 14.2 µg/mL (≈ 46.7 µM). In addition, the inhibition at 10 µg/mL in the data set on Leishmania donovani [2] came to 95.7%. This compound also showed an IC50 with Leishmania donovani [3] of 2.15 µg/mL (≈ 7.04 µM). In addition, the “Ratio CC50/IC50” value in data set [4] was 6.62.

Consider `O[C@H]1CCc2ccccc2[C@@H]1n1ccnc1` (racemic), for which, in data set [1], the CC50 is over 100 µg/mL. Besides, in the data set on Leishmania donovani [2], the inhibition at 10 µg/mL stood at 60%. This compound also registered an IC50 with Leishmania donovani [3] of over 50 µg/mL. Further, the “Ratio CC50/IC50” value in data set [4] is recorded as 2.

In data set [1], `O[C@H]1CCc2ccccc2[C@@H]1n1ccnn1` (racemic) showed a CC50 of 35.6 µg/mL (≈ 165 µM). For the same compound, in the data set with Leishmania donovani [2], the inhibition at 10 µg/mL turned out to be 90.4%. Further, the inhibition entry with Leishmania donovani [5] was “inactive”.

In data set [1], `FC(F)(F)c1ccc(O[C@H]2CCc3ccccc3[C@@H]2n2ccnc2)cc1` (racemic) gave a 50% cytotoxic concentration (CC50) of 52.5 µg/mL (≈ 146 µM). Further, the inhibition at 10 µg/mL in the data set with Leishmania donovani [2] stood at 60%. For the same compound, the inhibition entry with Leishmania donovani [5] is “inactive”.

Consider `O=[N+]([O-])c1ccc(O[C@H]2CCc3ccccc3[C@@H]2n2ccnc2)cc1` (racemic), for which it took 21.4 µg/mL (≈ 63.9 µM) to reach half-maximal cytotoxicity in data set [1] (CC50). In addition, the inhibition at 10 µg/mL with Leishmania donovani [2] is 94.9%. Besides, in the data set on Leishmania donovani [3], the IC50 came to 4.53 µg/mL (≈ 13.5 µM). For the same compound, the “Ratio CC50/IC50” value in data set [4] came to 4.73.

Regarding `O=[N+]([O-])c1ccc(O[C@H]2CCc3ccccc3[C@@H]2n2ccnc2)c(C(F)(F)F)c1` (racemic), in data set [1], the midpoint of cytotoxicity, the CC50, lay at 10.7 µg/mL (≈ 26.5 µM). Moreover, the inhibition at 10 µg/mL with Leishmania donovani [2] turned out to be 91.2%. Also, it took 1.59 µg/mL (≈ 3.94 µM) to reach half-maximal inhibition in the data set with Leishmania donovani [3] (IC50). The “Ratio CC50/IC50” value in data set [4] was 6.73.

Compound `O=[N+]([O-])c1ccc(O[C@H]2CCc3ccccc3[C@@H]2n2ccnc2)c(F)c1` (racemic) displayed a CC50 in data set [1] of 32.1 µg/mL (≈ 90.9 µM). The inhibition at 10 µg/mL in the data set with Leishmania donovani [2] turned out to be 100%. The compound also showed an IC50 in the data set with Leishmania donovani [3] of 6.52 µg/mL (≈ 18.5 µM). Further, the “Ratio CC50/IC50” value in data set [4] was 4.92.

Consider `O=[N+]([O-])c1cc(C(F)(F)F)ccc1O[C@H]1CCc2ccccc2[C@@H]1n1ccnc1` (racemic), for which the CC50 in data set [1] stood at 20.1 µg/mL (≈ 49.8 µM). The inhibition at 10 µg/mL with Leishmania donovani [2] is 99.6%. Also, the IC50 in the data set on Leishmania donovani [3] came to 3.58 µg/mL (≈ 8.88 µM). In addition, in data set [4], the “Ratio CC50/IC50” value came to 5.61.

`Clc1ccc(Cl)c(CO[C@H]2CCc3ccccc3[C@@H]2n2ccnc2)c1` (racemic) had a CC50 in data set [1] of 22.3 µg/mL (≈ 59.6 µM). The inhibition at 10 µg/mL with Leishmania donovani [2] was determined as 100%. For the same compound, the inhibition in vivo at 50 mg/kg with Leishmania donovani [6] is 83.3%. The same compound displayed an IC50 in the data set on Leishmania donovani [3] of 0.64 µg/mL (≈ 1.71 µM). For the same compound, in data set [4], the “Ratio CC50/IC50” value amounted to 34.78.

Compound `Clc1cccc(CO[C@H]2CCc3ccccc3[C@@H]2n2ccnc2)c1` (racemic) gave a CC50 in data set [1] of 15.5 µg/mL (≈ 45.6 µM). The inhibition at 10 µg/mL in the data set on Leishmania donovani [2] was found to be 100%. Further, in the data set on Leishmania donovani [6], the inhibition in vivo at 50 mg/kg is 32.1%. In addition, inhibition in the data set with Leishmania donovani [3] was half-maximal at 1.34 µg/mL (≈ 3.95 µM) (IC50). In addition, the “Ratio CC50/IC50” value in data set [4] is listed as 11.53.

Take `O=[N+]([O-])c1ccc(O[C@H]2CCc3ccccc3[C@@H]2n2ccnn2)cc1` (racemic): in data set [1], the CC50 was over 100 µg/mL. Besides, in the data set with Leishmania donovani [2], the inhibition at 10 µg/mL amounted to 99.6%. Moreover, in the data set with Leishmania donovani [5], the inhibition result was “inactive”.

Turning to `O=[N+]([O-])c1ccc(O[C@H]2CCc3ccccc3[C@@H]2n2ccnn2)c(F)c1` (racemic), in data set [1], the cytotoxic concentration (CC50) is over 100 µg/mL. For the same compound, the inhibition at 10 µg/mL in the data set on Leishmania donovani [2] amounted to 100%. The inhibition result in the data set on Leishmania donovani [5] was “inactive”.

In data set [1], `Clc1cccc(CO[C@H]2CCc3ccccc3[C@@H]2n2ccnn2)c1` (racemic) registered a CC50 of 30.2 µg/mL (≈ 88.9 µM). Further, the inhibition at 10 µg/mL in the data set on Leishmania donovani [2] was 100%. In addition, half-maximal inhibition in the data set with Leishmania donovani [3] (IC50) was put at 3.01 µg/mL (≈ 8.86 µM). For the same compound, in data set [4], the “Ratio CC50/IC50” value was 10.03.

Regarding `FC(F)(F)c1ccc(O[C@H]2CCCC[C@@H]2n2ccnc2)cc1` (racemic), the inhibition at 10 µg/mL in the data set on Leishmania donovani [2] amounted to 99.8%. The inhibition entry with Leishmania donovani [5] was “inactive”.

`O=[N+]([O-])c1ccc(O[C@H]2CCCC[C@@H]2n2ccnc2)cc1` (racemic): in data set [1], the CC50 was 8.27 µg/mL (≈ 28.8 µM). In the data set with Leishmania donovani [2], the inhibition at 10 µg/mL stood at 98.6%. This compound came in with an IC50 in the data set on Leishmania donovani [3] of 2.23 µg/mL (≈ 7.76 µM). In addition, in data set [4], the “Ratio CC50/IC50” value is given as 3.7.

As to `O=[N+]([O-])c1cc(C(F)(F)F)ccc1O[C@H]1CCCC[C@@H]1n1ccnc1` (racemic), the CC50 in data set [1] is 22.1 µg/mL (≈ 62.3 µM). In addition, the inhibition at 10 µg/mL in the data set on Leishmania donovani [2] was 99%. Also, the IC50 in the data set with Leishmania donovani [3] stood at 5.07 µg/mL (≈ 14.3 µM). In addition, in data set [4], the “Ratio CC50/IC50” value turned out to be 4.36.

In the case of `Clc1cccc(CO[C@H]2CCCC[C@@H]2n2ccnc2)c1` (racemic), half-maximal cytotoxicity in data set [1] (CC50) was put at 12.8 µg/mL (≈ 43.9 µM). Further, the inhibition at 10 µg/mL with Leishmania donovani [2] turned out to be 96.9%. Moreover, the midpoint of inhibition in the data set with Leishmania donovani [3], the IC50, lay at 1.4 µg/mL (≈ 4.83 µM). Further, the “Ratio CC50/IC50” value in data set [4] is 9.1.

In data set [1], `Clc1ccc(Cl)c(CO[C@H]2CCCC[C@@H]2n2ccnc2)c1` (racemic) yielded a CC50 of 27.2 µg/mL (≈ 83.5 µM). Also, the inhibition at 10 µg/mL in the data set on Leishmania donovani [2] worked out at 89.6%. The compound further came in with an IC50 with Leishmania donovani [3] of 4.03 µg/mL (≈ 12.4 µM). For the same compound, the “Ratio CC50/IC50” value in data set [4] was determined as 6.73.

Turning to `Clc1ccc(CO[C@H]2CCCC[C@@H]2n2ccnc2)c(Cl)c1` (racemic), in data set [1], the CC50 stood at 3.43 µg/mL (≈ 10.5 µM). Besides, the inhibition at 10 µg/mL in the data set with Leishmania donovani [2] was determined as 99.5%. The compound also came in with an IC50 in the data set on Leishmania donovani [3] of 2.44 µg/mL (≈ 7.5 µM). Moreover, the “Ratio CC50/IC50” value in data set [4] was 1.41.

As to `NC[C@@H]1O[C@H](O[C@H]2[C@@H](O)[C@H](O[C@@H]3[C@@H](O)[C@H](N)C[C@H](N)[C@H]3O[C@H]3O[C@H](CO)[C@@H](O)[C@H](O)[C@H]3N)O[C@@H]2CO)[C@H](N)[C@@H](O)[C@@H]1O` [PAROMOMYCIN], the midpoint of cytotoxicity in data set [1], the CC50, lay at 53.3 µg/mL (≈ 86.6 µM). Further, the inhibition at 10 µg/mL in the data set with Leishmania donovani [2] worked out at 124%. The inhibition in vivo at 50 mg/kg in the data set with Leishmania donovani [6] is 46.7%. For the same compound, the half-inhibitory concentration (IC50) with Leishmania donovani [3] came to 24.8 µg/mL (≈ 40.3 µM). Besides, in data set [4], the “Ratio CC50/IC50” value was 2.15.

As to sodium stibogluconate, in the data set with Leishmania donovani [6], the inhibition came out at 92.2%. Moreover, the Ratio CC50/IC50 in the data set with J774.A1 is 6.38.
